This is an account of results in ChEMBL document CHEMBL4342483, “Codrug Approach for the Potential Treatment of EML4-ALK Positive Lung Cancer” (ACS Med Chem Lett, 2020).

A short description of series [1]: Half life in phosphate buffer and DMSO supplemented with 4% bovine serum albumin at pH 6.5 by HPLC analysis. In kind it is physicochemical. As to conditions: phosphate buffer and DMSO with 4% bovine serum albumin.
Series [2] in a line: Half life in phosphate buffer and DMSO supplemented with 4% bovine serum albumin at pH 7.4 by HPLC analysis. Type of series: physicochemical. As to conditions: phosphate buffer and DMSO with 4% bovine serum albumin.
The nature of series [3]: Hydrolytic stability in phosphate buffer and DMSO supplemented with 4% bovine serum albumin assessed as rate constant at pH 7.4 by HPLC analysis.
Series [4] in a line: Hydrolytic stability in phosphate buffer and DMSO supplemented with 4% bovine serum albumin assessed as rate constant at pH 6.5 by HPLC analysis.
Series [5] is described as follows: Half life in rat plasma. Type of series: ADME, cell-free.
Series [6] can be described thus: Drug degradation in rat plasma assessed as compound hydrolysis with first order rate constant. Type of series: ADME, cell-free.
Series [7] deals with A549. The experiment in a line: Synergistic growth inhibition of ALK-negative human A549 cells assessed as combination index at compound:ceritinib concentration ratio of 1:1 and fractional effect of 0.25 in presence of ceritinib by Chou-Talalay method. Type of series: functional.
Series [8] in a line: Cytotoxicity against EML4-ALK-positive human CCL185IG cells harboring wild type PI3KCA and CDKN2A and KRAS mutations assessed as cell growth inhibition measured after 72 hrs by MTT assay. Type of series: functional.
Series [9] relates to A549. As to the kind of experiment: Cytotoxicity against ALK-negative human A549 cells harboring wild type PI3KCA and CDKN2A and KRAS mutations assessed as cell growth inhibition measured after 72 hrs by MTT assay. As to conditions: A549, 72 h. In kind it is functional.
In series [10] the test system is A549. The experiment in a line: Synergistic growth inhibition of ALK-negative human A549 cells assessed as combination index at compound:ceritinib concentration ratio of 1:1 and fractional effect of 0.5 in presence of ceritinib by Chou-Talalay method. In kind it is functional.
Series [11] has as its system A549. As to the kind of experiment: Synergistic growth inhibition of ALK-negative human A549 cells assessed as combination index at compound:ceritinib concentration ratio of 1:1 and fractional effect of 0.76 in presence of ceritinib by Chou-Talalay method. In kind it is functional.
Series [12] relates to A549. The experiment in a line: Synergistic growth inhibition of ALK-negative human A549 cells assessed as combination index at compound:ceritinib concentration ratio of 1:1 and fractional effect of 0.96 in presence of ceritinib by Chou-Talalay method. Type of series: functional.
A short description of series [13]: Synergistic growth inhibition of EML4-ALK-positive human CCL185IG cells assessed as combination index at compound:ceritinib concentration ratio of 1:1 and fractional effect of 0.25 in presence of ceritinib by Chou-Talalay method. Type of series: functional.
Series [14] can be described thus: Synergistic growth inhibition of EML4-ALK-positive human CCL185IG cells assessed as combination index at compound:ceritinib concentration ratio of 1:1 and fractional effect of 0.5 in presence of ceritinib by Chou-Talalay method. In kind it is functional.
Series [15] in a line: Synergistic growth inhibition of EML4-ALK-positive human CCL185IG cells assessed as combination index at compound:ceritinib concentration ratio of 1:1 and fractional effect of 0.76 in presence of ceritinib by Chou-Talalay method. In kind it is functional.
Series [16] can be described thus: Synergistic growth inhibition of EML4-ALK-positive human CCL185IG cells assessed as combination index at compound:ceritinib concentration ratio of 1:1 and fractional effect of 0.96 in presence of ceritinib by Chou-Talalay method. Type of series: functional.
Series [17] has as its system A549. As to the kind of experiment: Cytotoxicity against ALK-negative human A549 cells assessed as cell growth inhibition by Chou-Talalay method. In kind it is functional.
A short description of series [18]: Cytotoxicity against EML4-ALK-positive human CCL185IG cells assessed as cell growth inhibition by Chou-Talalay method. In kind it is functional.
For series [19], the target named is ALK tyrosine kinase receptor (Homo sapiens) (UniProt Q9UM73). As to conditions: 500 nM.
ALK tyrosine kinase receptor (Homo sapiens), sequence (Q9UM73 19-1620 limits assumed): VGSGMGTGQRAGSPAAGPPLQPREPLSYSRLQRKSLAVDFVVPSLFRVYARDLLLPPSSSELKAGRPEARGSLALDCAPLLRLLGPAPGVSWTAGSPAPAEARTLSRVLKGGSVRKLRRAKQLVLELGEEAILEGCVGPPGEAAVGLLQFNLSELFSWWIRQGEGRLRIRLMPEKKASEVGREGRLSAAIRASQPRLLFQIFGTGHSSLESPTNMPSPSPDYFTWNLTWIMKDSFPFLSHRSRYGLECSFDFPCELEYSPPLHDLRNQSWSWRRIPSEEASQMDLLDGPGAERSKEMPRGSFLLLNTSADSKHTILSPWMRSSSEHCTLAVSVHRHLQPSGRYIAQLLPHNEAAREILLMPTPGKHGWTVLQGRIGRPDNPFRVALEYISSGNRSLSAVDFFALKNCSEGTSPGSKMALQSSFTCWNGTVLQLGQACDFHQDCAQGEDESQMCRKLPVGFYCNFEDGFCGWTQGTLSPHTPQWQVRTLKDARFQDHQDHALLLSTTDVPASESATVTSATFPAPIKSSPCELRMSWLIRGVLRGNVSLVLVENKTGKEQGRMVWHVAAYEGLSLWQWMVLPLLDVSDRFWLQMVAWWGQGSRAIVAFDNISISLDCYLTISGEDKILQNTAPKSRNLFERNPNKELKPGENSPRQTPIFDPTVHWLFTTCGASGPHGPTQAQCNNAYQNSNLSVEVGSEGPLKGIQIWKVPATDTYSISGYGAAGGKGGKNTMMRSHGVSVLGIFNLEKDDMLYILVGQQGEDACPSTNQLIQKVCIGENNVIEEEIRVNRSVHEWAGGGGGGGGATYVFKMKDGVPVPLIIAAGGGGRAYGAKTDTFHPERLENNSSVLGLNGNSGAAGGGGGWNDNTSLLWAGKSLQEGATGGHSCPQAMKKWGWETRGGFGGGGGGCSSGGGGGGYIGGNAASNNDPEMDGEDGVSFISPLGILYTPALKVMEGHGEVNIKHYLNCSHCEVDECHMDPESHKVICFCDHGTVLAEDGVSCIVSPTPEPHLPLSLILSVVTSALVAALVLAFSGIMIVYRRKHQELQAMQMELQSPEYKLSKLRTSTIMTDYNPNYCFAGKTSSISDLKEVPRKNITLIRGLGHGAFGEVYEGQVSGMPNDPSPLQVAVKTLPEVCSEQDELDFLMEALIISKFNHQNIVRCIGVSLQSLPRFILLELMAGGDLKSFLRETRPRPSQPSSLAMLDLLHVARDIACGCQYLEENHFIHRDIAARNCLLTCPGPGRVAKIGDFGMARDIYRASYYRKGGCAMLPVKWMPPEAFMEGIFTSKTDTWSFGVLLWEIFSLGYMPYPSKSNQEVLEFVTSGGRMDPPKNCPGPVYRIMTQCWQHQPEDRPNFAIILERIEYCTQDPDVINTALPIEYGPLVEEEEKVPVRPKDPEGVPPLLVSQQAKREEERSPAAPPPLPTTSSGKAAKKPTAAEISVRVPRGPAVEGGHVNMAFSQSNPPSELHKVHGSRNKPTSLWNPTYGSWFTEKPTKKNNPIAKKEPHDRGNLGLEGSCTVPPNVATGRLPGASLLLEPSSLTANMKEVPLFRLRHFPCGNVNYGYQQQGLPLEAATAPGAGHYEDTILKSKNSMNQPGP
Description: Inhibition of ALK-mediated STAT3 phosphorylation in EML4-ALK-positive human CCL185IG cells at 500 nM measured after 24 hrs in presence of pictilisib by Western blot analysis
The target is the same in series [20]. As to conditions: 500 nM. The source holds these as a separate data set.
Description: Inhibition of ALK-mediated STAT3 phosphorylation in EML4-ALK-positive human CCL185IG cells at 500 nM measured after 24 hrs by Western blot analysis
Series [21] in a line: Half life in phosphate buffer at pH 6.4 and d6-DMSO (1:1) by kinetic time-course NMR method. Type of series: physicochemical. As to conditions: phosphate buffer and d6-DMSO (1:1).
Series [22] in a line: Half life in phosphate buffer at pH 6.8 and d6-DMSO (1:1) by kinetic time-course NMR method. Type of series: physicochemical. As to conditions: phosphate buffer and d6-DMSO (1:1).
The nature of series [23]: Half life in phosphate buffer at pH 7.4 and d6-DMSO (1:1) by kinetic time-course NMR method. Type of series: physicochemical. The settings on record: phosphate buffer and d6-DMSO (1:1).
The nature of series [24]: Prodrug conversion in phosphate buffer at pH 6.4 and d6-DMSO (1:1) assessed as rate constant for release of active compound mimetics by kinetic time-course NMR method. In kind it is ADME.
The nature of series [25]: Prodrug conversion in phosphate buffer at pH 6.8 and d6-DMSO (1:1) assessed as rate constant for release of active compound mimetics by kinetic time-course NMR method. In kind it is ADME.
A short description of series [26]: Prodrug conversion in phosphate buffer at pH 7.4 and d6-DMSO (1:1) assessed as rate constant for release of active compound mimetics by kinetic time-course NMR method. Type of series: ADME.
Series [27] in a line: Drug degradation in rat plasma assessed as compound hydrolysis with zero order rate constant. In kind it is ADME, cell-free.

Active and inactive are the calls of the source. The calls are words filed in the database; no cut-off is given here.

Regarding `Cc1cc(Nc2ncc(Cl)c(Nc3ccccc3S(=O)(=O)C(C)C)n2)c(OC(C)C)cc1C1CCN(C(=O)OC(C)OC(=O)CC(N)CC(=O)n2ncc3c(-c4nc(N5CCOCC5)c5sc(CN6CCN(S(C)(=O)=O)CC6)cc5n4)cccc32)CC1` (configuration not stated), the half-life in series [1] was 12 h; in series [2], 7.6 h; in [5] it was 1.15 h. In addition, the values for the K in series [3], in series [4] and in [6] were 0.091 h⁻¹, 0.058 h⁻¹ and 0.01 min⁻¹, respectively.

For the molecule `CS(=O)(=O)N1CCN(Cc2cc3nc(-c4cccc5[nH]ncc45)nc(N4CCOCC4)c3s2)CC1` [PICTILISIB], the CI in series [7] is 0.95; in [10], 0.72; in series [11], 0.55; in [12], 0.35; in series [13] it was 0.52; in [14], 0.37. Besides, the CI was 0.3 in series [15] and 0.24 in series [16]. In addition, the GI50 in series [8] stood at 1180 nM; in [9], 1220 nM. Moreover, the figures for the D50 in [17] and in [18] were 1.22 µM and 1.12 µM, respectively.

`Cc1cc(Nc2ncc(Cl)c(Nc3ccccc3S(=O)(=O)C(C)C)n2)c(OC(C)C)cc1C1CCNCC1` [CERITINIB]: the GI50 in series [8] came out at 565 nM; in series [9] it was 845 nM. Besides, the D50 in series [17] turned out to be 0.85 µM; in series [18] it was 0.57 µM. For the same molecule, the inhibition entry in series [19] and in series [20] was “Active” throughout.

For `CC(OC(=O)C[C@H](N)C(=O)n1ncc2cc(Br)ccc21)OC(=O)N1CCC(c2ccccc2)CC1` (some centres not stated), the half-life in series [21] was 4.64 h; in series [22], 0.7 h; in series [23] it was 0.39 h. Further, the K in [24] came to 0.22 h⁻¹; in [25], 0.84 h⁻¹; in series [26] it was 1.37 h⁻¹.

Consider `Cc1cc(Nc2ncc(Cl)c(Nc3ccccc3S(=O)(=O)C(C)C)n2)c(OC(C)C)cc1C1CCN(C(=O)OC(C)OC(=O)C[C@H](N)C(=O)n2ncc3c(-c4nc(N5CCOCC5)c5sc(CN6CCN(S(C)(=O)=O)CC6)cc5n4)cccc32)CC1` (some centres not stated), for which the half-life in series [1] was 19.3 h; in [2], 7.4 h; in [5], 0.967 h. Besides, the K in series [3] is 0.094 h⁻¹; in series [4], 0.036 h⁻¹; in series [27], 0.069 µM/s.

Regarding `Cc1cc(Nc2ncc(Cl)c(Nc3ccccc3S(=O)(=O)C(C)C)n2)c(OC(C)C)cc1C1CCN(C(=O)OC(C)OC(=O)[C@@H](N)CC(=O)n2ncc3c(-c4nc(N5CCOCC5)c5sc(CN6CCN(S(C)(=O)=O)CC6)cc5n4)cccc32)CC1` (some centres not stated), the half-life in series [1] is 34.7 h; in series [2], 19.3 h; in [5] it was 0.633 h. Further, the K worked out at 0.036 h⁻¹ in series [3], 0.02 h⁻¹ in series [4] and 0.018 min⁻¹ in [6].
